Data set [1] addresses DPP4 (dipeptidyl peptidase 4) (Homo sapiens, UniProt P27487). The data set can be described thus: Stability in plasma (unknown origin) assessed as DPP4-mediated drug degradation by measuring half life. In kind it is ADME.
The target in data set [2] is Acetylcholine receptor subunit epsilon (Homo sapiens, UniProt Q04844). As to the kind of experiment: Inhibition of nAChR epsilon (unknown origin).
Data set [3] in a line: Toxicity in mouse. In kind it is organism-based. Conditions: in vivo.
Data set [4] has as its target T1, Transient receptor potential cation channel subfamily V member 6 (Homo sapiens, UniProt Q9H1D0).
T1 sequence (Q9H1D0 whole entry): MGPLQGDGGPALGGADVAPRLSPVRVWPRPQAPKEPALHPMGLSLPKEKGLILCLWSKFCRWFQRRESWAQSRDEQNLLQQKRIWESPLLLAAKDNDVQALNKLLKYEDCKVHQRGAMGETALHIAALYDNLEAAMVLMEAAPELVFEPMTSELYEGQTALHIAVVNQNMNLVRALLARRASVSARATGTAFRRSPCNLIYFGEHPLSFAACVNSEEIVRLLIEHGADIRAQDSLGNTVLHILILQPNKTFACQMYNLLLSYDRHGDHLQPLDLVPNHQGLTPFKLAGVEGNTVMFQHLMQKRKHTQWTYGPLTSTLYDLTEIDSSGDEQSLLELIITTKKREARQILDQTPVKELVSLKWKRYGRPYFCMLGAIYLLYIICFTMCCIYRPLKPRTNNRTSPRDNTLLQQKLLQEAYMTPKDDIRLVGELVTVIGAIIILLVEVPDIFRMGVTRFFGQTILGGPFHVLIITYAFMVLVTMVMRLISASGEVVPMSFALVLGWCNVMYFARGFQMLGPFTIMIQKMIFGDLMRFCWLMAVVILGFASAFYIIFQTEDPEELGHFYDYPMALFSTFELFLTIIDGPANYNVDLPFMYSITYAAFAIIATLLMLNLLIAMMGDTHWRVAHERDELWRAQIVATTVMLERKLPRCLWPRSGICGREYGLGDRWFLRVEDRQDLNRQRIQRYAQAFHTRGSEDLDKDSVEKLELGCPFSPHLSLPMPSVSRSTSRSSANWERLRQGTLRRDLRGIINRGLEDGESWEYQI
As to the kind of experiment: Inhibition of TRPV6 (unknown origin) expressed in HEK293 cells by whole cell patch clamp assay. In kind it is cell-based.

Data set [5] addresses Sodium channel protein type 2 subunit alpha (Homo sapiens, UniProt Q99250). The data set can be described thus: Inhibition of Nav1.2 (unknown origin) expressed in xenopus oocytes at -80 mV holding potential by two-electrode voltage-clamp method. Type of data set: cell-based. On the technique in general: Two-electrode voltage clamp holds a large cell at a set potential and records current.

For data set [6], the target named is Sodium channel protein type 5 subunit alpha (Homo sapiens, UniProt Q14524). The data set can be described thus: Inhibition of Nav1.5 (unknown origin) expressed in xenopus oocytes at -80 mV holding potential by two-electrode voltage-clamp method. In kind it is cell-based.
Sequence of Sodium channel protein type 5 subunit alpha (Q14524 whole entry): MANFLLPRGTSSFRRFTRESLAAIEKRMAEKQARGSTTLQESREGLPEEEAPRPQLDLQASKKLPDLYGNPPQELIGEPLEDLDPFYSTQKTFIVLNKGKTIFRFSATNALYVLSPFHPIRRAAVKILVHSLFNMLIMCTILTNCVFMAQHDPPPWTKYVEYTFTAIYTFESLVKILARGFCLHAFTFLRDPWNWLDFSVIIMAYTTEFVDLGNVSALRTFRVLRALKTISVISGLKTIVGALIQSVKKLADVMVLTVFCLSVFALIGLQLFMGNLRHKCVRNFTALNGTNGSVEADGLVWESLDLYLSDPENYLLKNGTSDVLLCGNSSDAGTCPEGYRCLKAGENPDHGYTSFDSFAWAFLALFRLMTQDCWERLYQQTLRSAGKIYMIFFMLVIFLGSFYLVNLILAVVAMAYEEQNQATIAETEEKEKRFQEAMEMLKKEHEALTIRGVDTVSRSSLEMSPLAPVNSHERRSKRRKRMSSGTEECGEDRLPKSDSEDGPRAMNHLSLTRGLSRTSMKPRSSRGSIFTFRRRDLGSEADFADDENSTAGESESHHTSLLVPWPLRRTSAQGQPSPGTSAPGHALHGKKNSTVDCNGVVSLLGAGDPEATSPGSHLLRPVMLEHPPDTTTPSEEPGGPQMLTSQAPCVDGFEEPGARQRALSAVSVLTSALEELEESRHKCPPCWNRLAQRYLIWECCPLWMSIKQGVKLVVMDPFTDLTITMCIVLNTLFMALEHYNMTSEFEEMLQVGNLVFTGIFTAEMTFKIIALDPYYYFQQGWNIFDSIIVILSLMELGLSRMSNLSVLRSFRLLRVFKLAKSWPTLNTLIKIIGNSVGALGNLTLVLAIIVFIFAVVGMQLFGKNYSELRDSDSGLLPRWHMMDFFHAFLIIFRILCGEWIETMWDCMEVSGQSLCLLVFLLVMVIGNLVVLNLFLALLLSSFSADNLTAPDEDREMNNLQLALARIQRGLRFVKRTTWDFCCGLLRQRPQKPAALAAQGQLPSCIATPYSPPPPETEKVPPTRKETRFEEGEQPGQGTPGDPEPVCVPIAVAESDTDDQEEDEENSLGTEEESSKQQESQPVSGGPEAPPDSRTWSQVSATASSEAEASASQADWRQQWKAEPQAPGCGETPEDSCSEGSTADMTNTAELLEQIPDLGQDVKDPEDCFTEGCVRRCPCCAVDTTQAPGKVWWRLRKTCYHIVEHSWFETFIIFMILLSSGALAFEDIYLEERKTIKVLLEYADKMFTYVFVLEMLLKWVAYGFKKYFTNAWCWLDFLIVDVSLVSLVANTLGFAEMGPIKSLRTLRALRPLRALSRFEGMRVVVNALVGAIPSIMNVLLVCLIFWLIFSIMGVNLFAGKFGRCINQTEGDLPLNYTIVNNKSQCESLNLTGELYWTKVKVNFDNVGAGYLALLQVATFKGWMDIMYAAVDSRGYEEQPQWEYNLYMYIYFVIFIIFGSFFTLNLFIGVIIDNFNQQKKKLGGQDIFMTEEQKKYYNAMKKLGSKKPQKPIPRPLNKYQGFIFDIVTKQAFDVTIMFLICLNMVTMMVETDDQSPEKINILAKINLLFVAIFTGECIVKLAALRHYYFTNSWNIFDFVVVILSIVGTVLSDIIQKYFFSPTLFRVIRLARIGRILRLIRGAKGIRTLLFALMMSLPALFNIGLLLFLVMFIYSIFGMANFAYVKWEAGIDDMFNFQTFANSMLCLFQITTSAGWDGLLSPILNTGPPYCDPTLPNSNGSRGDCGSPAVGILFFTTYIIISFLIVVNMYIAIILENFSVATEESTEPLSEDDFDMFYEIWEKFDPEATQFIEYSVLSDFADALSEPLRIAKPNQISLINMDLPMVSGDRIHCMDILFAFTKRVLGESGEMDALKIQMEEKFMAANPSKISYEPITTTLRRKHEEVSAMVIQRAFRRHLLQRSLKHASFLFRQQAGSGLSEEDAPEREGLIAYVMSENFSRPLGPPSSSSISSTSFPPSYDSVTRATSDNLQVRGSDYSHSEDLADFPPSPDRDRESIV
For data set [7], the target named is Sodium channel protein type 8 subunit alpha (Homo sapiens, UniProt Q9UQD0). As to the kind of experiment: Inhibition of Nav1.6 (unknown origin).

pIC50: −log10 of the molar value. Positions of bridges follow the written chain, without caps; N, C: chain ends. Residues, ends and D or L forms follow the SMILES beside them.

Sequence of Acetylcholine receptor subunit epsilon (Q04844 whole entry): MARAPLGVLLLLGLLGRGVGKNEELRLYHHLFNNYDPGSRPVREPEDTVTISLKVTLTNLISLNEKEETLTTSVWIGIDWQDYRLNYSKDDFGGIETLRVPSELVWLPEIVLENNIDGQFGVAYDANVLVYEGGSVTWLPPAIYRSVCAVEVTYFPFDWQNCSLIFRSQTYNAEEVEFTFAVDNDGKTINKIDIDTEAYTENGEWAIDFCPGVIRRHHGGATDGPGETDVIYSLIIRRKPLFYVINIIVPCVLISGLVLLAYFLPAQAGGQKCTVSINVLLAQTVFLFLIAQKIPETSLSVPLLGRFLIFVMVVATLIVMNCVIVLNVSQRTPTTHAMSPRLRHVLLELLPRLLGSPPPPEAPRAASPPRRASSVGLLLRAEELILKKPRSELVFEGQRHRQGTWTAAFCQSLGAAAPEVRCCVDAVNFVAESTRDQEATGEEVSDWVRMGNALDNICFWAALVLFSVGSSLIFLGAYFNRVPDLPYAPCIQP
Sequence of Sodium channel protein type 2 subunit alpha (Q99250 whole entry): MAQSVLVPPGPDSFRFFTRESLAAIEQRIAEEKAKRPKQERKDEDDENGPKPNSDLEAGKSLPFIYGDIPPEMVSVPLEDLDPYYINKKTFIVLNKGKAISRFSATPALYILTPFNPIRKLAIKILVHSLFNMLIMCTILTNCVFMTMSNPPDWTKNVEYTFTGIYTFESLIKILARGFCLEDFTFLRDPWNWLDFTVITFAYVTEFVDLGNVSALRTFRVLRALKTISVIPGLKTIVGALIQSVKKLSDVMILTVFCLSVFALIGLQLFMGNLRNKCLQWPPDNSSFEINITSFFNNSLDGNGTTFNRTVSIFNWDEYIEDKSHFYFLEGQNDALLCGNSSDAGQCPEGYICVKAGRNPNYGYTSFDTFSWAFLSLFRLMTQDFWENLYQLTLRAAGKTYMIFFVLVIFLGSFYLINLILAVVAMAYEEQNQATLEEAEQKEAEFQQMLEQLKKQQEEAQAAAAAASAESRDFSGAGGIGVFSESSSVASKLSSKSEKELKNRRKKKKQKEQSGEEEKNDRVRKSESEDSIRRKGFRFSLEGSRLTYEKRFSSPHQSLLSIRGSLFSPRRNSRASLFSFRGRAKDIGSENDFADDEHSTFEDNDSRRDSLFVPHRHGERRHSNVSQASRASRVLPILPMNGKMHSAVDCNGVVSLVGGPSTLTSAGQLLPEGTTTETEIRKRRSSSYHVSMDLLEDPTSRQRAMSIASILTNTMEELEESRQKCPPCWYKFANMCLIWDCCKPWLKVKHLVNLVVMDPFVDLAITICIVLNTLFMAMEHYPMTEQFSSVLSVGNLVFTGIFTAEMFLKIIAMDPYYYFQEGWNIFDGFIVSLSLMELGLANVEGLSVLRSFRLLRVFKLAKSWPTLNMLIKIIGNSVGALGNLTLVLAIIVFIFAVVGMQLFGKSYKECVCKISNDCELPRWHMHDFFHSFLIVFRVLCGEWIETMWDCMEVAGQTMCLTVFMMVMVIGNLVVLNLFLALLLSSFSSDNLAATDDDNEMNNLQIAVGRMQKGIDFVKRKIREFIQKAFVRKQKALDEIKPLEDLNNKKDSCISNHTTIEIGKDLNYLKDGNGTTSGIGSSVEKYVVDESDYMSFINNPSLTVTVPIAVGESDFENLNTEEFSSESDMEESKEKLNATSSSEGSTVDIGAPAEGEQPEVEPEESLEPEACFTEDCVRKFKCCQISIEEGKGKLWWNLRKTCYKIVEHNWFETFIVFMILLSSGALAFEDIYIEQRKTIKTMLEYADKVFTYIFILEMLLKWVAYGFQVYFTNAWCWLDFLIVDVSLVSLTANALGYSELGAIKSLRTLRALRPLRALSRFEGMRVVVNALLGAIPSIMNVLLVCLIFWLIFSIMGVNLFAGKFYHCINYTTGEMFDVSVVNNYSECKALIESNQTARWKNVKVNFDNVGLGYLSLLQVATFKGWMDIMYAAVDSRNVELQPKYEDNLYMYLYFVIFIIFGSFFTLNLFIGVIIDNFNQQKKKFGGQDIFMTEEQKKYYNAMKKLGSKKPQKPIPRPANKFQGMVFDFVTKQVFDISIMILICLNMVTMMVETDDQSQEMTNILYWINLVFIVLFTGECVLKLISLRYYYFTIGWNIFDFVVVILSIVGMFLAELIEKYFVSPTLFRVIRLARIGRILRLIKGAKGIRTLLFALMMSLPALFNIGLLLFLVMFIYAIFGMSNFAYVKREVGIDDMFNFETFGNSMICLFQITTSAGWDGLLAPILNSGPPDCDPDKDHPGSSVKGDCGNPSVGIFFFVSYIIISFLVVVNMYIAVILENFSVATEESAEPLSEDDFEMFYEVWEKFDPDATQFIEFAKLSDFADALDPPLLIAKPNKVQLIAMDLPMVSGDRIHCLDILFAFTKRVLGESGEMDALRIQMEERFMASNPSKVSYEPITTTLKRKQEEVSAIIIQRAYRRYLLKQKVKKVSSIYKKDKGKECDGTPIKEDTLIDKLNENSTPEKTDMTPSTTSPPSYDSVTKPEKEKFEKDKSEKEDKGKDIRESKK

The term half-life denotes the time needed for the level to fall by half in the phase considered. On to “H-SDGTFTSDLSKQMEEEAVRLFIEWLKNGGPSGAPPPS-NH2”, for which, in data set [1], the half-life worked out at 2 min.
The pIC50 is the negative decadic logarithm of the IC50, by convention in mol/L. One may read the LD50 as the dose expected to kill half of the subjects tested. The low end stands for a more toxic substance, the high end for a less toxic substance. `CC[C@H](C)[C@H](NC(=O)[C@H](Cc1ccc(O)cc1)NC(=O)[C@H](Cc1cnc[nH]1)NC(=O)[C@@H]1CSSC[C@H](NC(=O)[C@@H]2CCCN2C(=O)[C@H](CCCNC(=N)N)NC(=O)[C@H](CC(C)C)NC(=O)[C@H](CC(=O)O)NC(=O)[C@@H]2CCCN2C(=O)[C@H](CCCCN)NC(=O)CNC(=O)CN)C(=O)N[C@@H](Cc2cnc[nH]2)C(=O)N2CCC[C@H]2C(=O)N2CCC[C@H]2C(=O)N1)C(=O)N1CCC[C@H]1C(=O)N[C@@H](CCCNC(=N)N)C(=O)N1CCC[C@H]1C(=O)N[C@@H](CCCCN)C(=O)N1CCC[C@H]1C(=O)N[C@@H](CCCNC(=N)N)C(=O)O` (H-GGKPDLRPCHPPCHYIPRPKPR-OH; disulfide 9-13) gave a pIC50 in data set [2] of 7.30. Further, the median lethal dose (LD50) in data set [3] came to 0.33 mg/kg.
In the case of H-KEFLHPSKVDLPR-OH [SOR-C13], the pIC50 in data set [4] was 7.85.
For `CSCC[C@@H]1NC(=O)CNC(=O)[C@H](CCC(=O)O)NC(=O)[C@@H]2CSSC[C@H](NC(=O)[C@@H](N)Cc3ccc(O)cc3)C(=O)N[C@@H](CCC(N)=O)C(=O)N[C@@H](CCCCN)C(=O)N[C@@H](Cc3c[nH]c4ccccc34)C(=O)N[C@@H](CCSC)C(=O)N[C@@H](Cc3c[nH]c4ccccc34)C(=O)N[C@@H]([C@@H](C)O)C(=O)N[C@H]3CSSC[C@H](NC(=O)[C@H](C(C)C)NC1=O)C(=O)N[C@@H](CCCNC(=N)N)C(=O)N[C@@H](CC(C)C)C(=O)N[C@@H](Cc1c[nH]c4ccccc14)C(=O)N[C@H](C(=O)N[C@@H](CCCCN)C(=O)N[C@@H](CCCCN)C(=O)N[C@@H](CCCCN)C(=O)N[C@@H](CC(C)C)C(=O)N[C@@H](Cc1c[nH]c4ccccc14)C(=O)O)CSSC[C@H](NC(=O)[C@H](CCCCN)NC(=O)[C@H](CCCNC(=N)N)NC(=O)[C@H](CCC(=O)O)NC(=O)[C@H](CO)NC(=O)[C@H](CC(=O)O)NC3=O)C(=O)N2`, the pIC50 was 7.39 in data set [5], 7.10 in data set [6] and 7.59 in data set [7].
